Experimental findings from patent US20060039931A1, “Stable cream preparations of phenyl-pyridone compounds for topical application” (MEPHA AG, priority 2002, published 2006) are described below.

This series can be described thus: Experiments on use of pyridone compounds in emulsions. The class given is physicochemical. From the text:
When an emulsion “breaks”, the oily and aqueous phases separate, leading to unwanted coalescence, i.e. a kind of confluence or coagulation of the constituents. This often results in a change in pH and may even cause the active ingredient to crystallize out. This disadvantageous property of pirfenidone is not discussed in said patents and patent applications and no teaching is offered to remedy the problem. Creams are merely cited as a possible topical form of application.

On to `Cc1ccc(=O)n(-c2ccccc2)c1` [pirfenidone, 5-methyl-1-phenyl-2-(1H)-pyridone], for which the Behaviour in emulsions entry is given as “behave as emulsion breakers”.
